Experiments:
hCXCR4 = target: T1, hCXCR4 (Homo sapiens, UniProt P61073); test: BRET β-arrestin2 recruitment to hCXCR4 in HEK293T cells; assay type: cell-based; details: in the presence or absence of 100 nM CXCL12
T1 construct: The CXCR4-Rluc8 fusion protein corresponds to CXCR4 isoform b (NCBI: NM_003467.2); expressed in transfected cells; host or cells: HEK293T
From the text: The NLuc-ACKR3 plasmid was a kind gift from Prof Hill (Nottingham University, Nottingham, United Kingdom),[31] […] The mVenus-CAAX and the hACKR3-NLuc constructs have been described by Zarca et al.[23] The sequence of the used ACKR3 constructs corresponds to National Center for Biotechnology Information (NCBI) database entry NM_020311.3. Radioligand binding studies used a mammalian expression vector pcDEF3 encoding ACKR3, N-terminally fused to an HA-tag and C-terminally fused to a triple Alanine tag (NotI). This construct was the template for the C-terminal ACKR3 fusion with the luminescent Rluc8 protein (NCBI: EF446136.1). The CXCR4-Rluc8 fusion protein corresponds to CXCR4 isoform b (NCBI: NM_003467.2) fused at the C-terminus with a triple Alanine linker (NotI) before the Rluc8 protein.
For 1·10^6 HEK293T cells, a transfection mix consisting of 2 μg plasmid DNA, 12 μg linear PEI in a total volume of 200 μL 150 mM NaCl was made and thoroughly vortexed. The transfection mix was incubated for 15 minutes and consequently added to a cell suspension with a final concentration of 3·10^5 cells/mL. […]
Fig. 2 VUF16840 inhibits constitutive as well as agonist induced β-arrestin2 recruitment to ACKR3. […] Subsequently, β-arrestin2 recruitment to hACKR3 was detected by NanoBiT complementation. […]

hACKR3-NLuc = target: T2, hACKR3-NLuc (Homo sapiens, UniProt P25106); test: Bystander BRET detection of ACKR3 membrane localization; assay type: cell-based; details: 1 μM VUF16840
T2 construct: expressed in transfected cells; host or cells: HEK293T
T2 sequence (P25106 whole entry): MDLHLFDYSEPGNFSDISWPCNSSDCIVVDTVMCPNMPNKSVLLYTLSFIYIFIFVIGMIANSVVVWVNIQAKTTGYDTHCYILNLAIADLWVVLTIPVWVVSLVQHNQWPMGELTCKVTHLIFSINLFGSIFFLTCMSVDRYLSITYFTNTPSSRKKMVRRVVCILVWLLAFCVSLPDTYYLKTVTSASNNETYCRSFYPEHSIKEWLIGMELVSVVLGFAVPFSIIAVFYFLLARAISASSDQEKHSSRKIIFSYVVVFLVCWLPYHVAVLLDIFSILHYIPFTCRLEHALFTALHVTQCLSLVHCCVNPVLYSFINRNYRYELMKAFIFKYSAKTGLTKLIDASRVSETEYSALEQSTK

T1 sequence (P61073 whole entry, the tested form may be a part, canonical isoform): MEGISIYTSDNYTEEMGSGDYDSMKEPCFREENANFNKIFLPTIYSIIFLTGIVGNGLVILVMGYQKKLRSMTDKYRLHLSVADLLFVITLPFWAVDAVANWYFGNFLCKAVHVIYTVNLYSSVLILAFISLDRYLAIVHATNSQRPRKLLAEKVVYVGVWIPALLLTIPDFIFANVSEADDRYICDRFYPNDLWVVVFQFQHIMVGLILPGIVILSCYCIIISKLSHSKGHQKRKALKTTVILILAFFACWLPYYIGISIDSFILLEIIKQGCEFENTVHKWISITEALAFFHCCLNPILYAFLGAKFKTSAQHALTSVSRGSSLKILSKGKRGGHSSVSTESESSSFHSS

- effect on β-arrestin2 recruitment to CXCR4 (hCXCR4): did not affect
- effect on bystander BRET signal hACKR3-NLuc / membrane-targeted mNeonGreen (cell surface localization) (hACKR3-NLuc): increased the bystander BRET signals
Structure (SMILES): COc1ccccc1CCNC(=O)C1CN(C2CCCCC2)CCC1NC(=O)c1cc(-c2ccc(F)cc2F)on1 (centres unmarked) [VUF16840]
